Assay results published in patent US20050009772A1, “Methods and compositions for the treatment of glaucoma and other retinal diseases” (The Regents of the University of California, priority 2003, published 2005).
“Also recorded” adds a separate entry of the source.

Legend:
[1] = test system: retinal ganglion cells (RGCs); test: Density of DTMR-labeled RGCs in rat glaucoma model (Experiment 2); format: in vivo
Experimental: GGA was then given twice a week at the same dose until euthanasia. Sustained elevation of intraocular pressure (IOP) was maintained by performing trabecular laser photocoagulation three weeks after the first photocoagulation. […] IOP and body weight were measured once a week. […] Rats were anesthetized with intramuscular injections of 0.8 ml/kg of the anesthetic cocktail described above. A previously published procedure was modified to produce chronic moderately elevated IOP unilaterally, while the untreated contralateral eye served as the comparative control.40 Animals were injected intracamerally with 10 μl of 35% India ink (Becton Dickinson, Cockeysville, Md.) in 0.01 M PBS after removing a similar volume of aqueous. At the end of the procedure, Tobrex ophthalmic ointment (tobramycin 0.3%; Alcon, Fort Worth, Tex.) was applied topically. Five days after intracameral injection of India ink, a dark band at the limbus was noted due to the aggregation of carbon particles in the trabecular meshwork.38 After anesthesia, approximately 200 laser burns were delivered ab externo to the pigmented trabecular band at laser settings of 200 μm diameter, 200 mW power and 0.2 seconds duration. Three weeks after the first laser treatment, another trabecular laser photocoagulation was performed without further injection of ink. […] A cross section of the optic nerve was made with the needle knife through the opening of the optic nerve sheath, with care not to damage the adjacent blood supply. DTMR crystals were applied to the proximal cut surface of the optic nerve to label RGCs by fast retrograde axonal transport. After euthanasia and enucleation, the retinas were dissected and flattened with four radial cuts (superotemporal, inferotemporal, superonasal, and inferonasal). They were placed with vitreal side up on glass slides, dried in the dark at room temperature overnight and mounted. The retinas were examined with a fluorescence microscope (Axioplan; Carl Zeiss, Oberkochen, Germany) equipped with a filter that permits visualization of rhodamine fluorescence (excitation filter BP 546, barrier filter LP590; Carl Zeiss). The counting of RGCs was conducted by 2 examiners in a masked fashion. […] Each rectangular area measured 0.475 mm×0.362 mm and the total counted area corresponded to approximately 3.1% of each total retinal area. Data are expressed as number of RGCs per mm2.

HSP72 [2] = test: Immunohistochemical staining for HSP72 on retinal sections after GGA administration (Experiment 1); format: in vivo, rat
Experimental: Three experiments are summarized here, and details are provided in the subsequent sections. […] For Western blotting, twelve rats were equally divided into 6 groups. […] Enriched RGC fraction was harvested from 2 retinas of each group and used for Western blot analysis. The same experiment for isolation of RGCs and Western blotting was repeated with the other 2 retinas-from each group.
(§1) Animals were deeply anesthetized with intramuscular injections of 0.8 ml/kg of a cocktail of 5 ml ketamine (100 mg/ml), 2.5 ml xylazine (20 mg/ml), 1.0 ml acepromazine (10 mg/ml), and 1.5 ml normal saline. Then they were transcardially perfused with 4% paraformaldehyde in 0.1 M phosphate buffer. The enucleated eyeballs were immersed in fixative for 1 hour, bisected and post-fixed overnight. The eyes were embedded in paraffin and sectioned at a four-μm thickness along the vertical meridian through the optic nerve head. After deparaffinization and hydration, a species-specific Vectastain ABC kit (Vector Laboratories, Inc., Burlingame, Calif.) was chosen to match the species of primary antibody and the manufacturer's procedures were followed. The tissue sections were incubated with blocking serum solution in PBS for 1 hour. This was followed by incubation with primary antibody at 4° C overnight. The antibodies were mouse monoclonal antibody against HSP72 (1:500; StressGen Biotechnologies Corp., Victoria, British Columbia, Canada), goat polyclonal antibody against HSP72 (1:1000; Santa Cruz Biotechnology, Inc., Santa Cruz, Calif.) or rat monoclonal antibody against HSC70 (1:200; StressGen). Antigen-antibody complexes were detected by an avidin-biotin-peroxidase technique (Vectastain ABC Kit; Vector Laboratories). Diaminobenzidine (DAB) was used to produce a brown color in the target tissue and the slides were permanently mounted. As a negative control, alternate retinal section was incubated with blocking solution by replacing the primary antibody or with anti-rabbit secondary antibody by replacing the original secondary antibody.

HSP72 [3] = test: Quantitative immunohistochemical analysis of HSP72 in the RGCL after 1 week of IOP elevation (Experiment 3); format: in vivo, rat; details: quercetin = co-administered with GGA
Experimental: TdT-mediated biotin-dUTP nick end labeling (TUNEL) and immunohistochemical analysis for HSP72 and HSC70 were performed.
as §1
Immunohistochemical staining was analyzed quantitatively with a computer-assisted image processing unit (Image-Pro Plus software, Media Cybernetics, Silver Spring, Md.) and the “count-measure” function. Images of immuno-stained sections were captured with a digital camera (Cool snap, RS Photometric, Tucson, Ariz.) attached to the microscope (Axio plan, Carl Zeiss, Oberkochen, Germany) at 630× magnification under oil immersion. The system was calibrated according to the supplier's manual before the analysis. For each digital image, all individual cells in the RGCL were marked by a masked examiner and the optical density of each cell was measured. The relative intensities of cells in the RGCL were measured and averaged (±SEM) to yield a single value representing one retina.

[4] = contralateral controls (normal IOP)
[5] = retinas with IOP elevation, 5 weeks

Q: How did the “density of DTMR-labeled RGCs” value [1, 4] turn out when Geranylgeranylacetone [GGA] was run?
A: The value was 1077±48 cells/mm2.

Q: And the “density of DTMR-labeled RGCs vs vehicle-treated controls (in words)” value [1, 4]?
A: The value was “no statistical significance”.

Q: And the “density of DTMR-labeled RGCs” value [1, 5]?
A: Its value is 1044±36 cells/mm2.

Q: What about the “more DTMR-labeled cells preserved compared with vehicle” value [1, 5] of the same substance?
A: The value was 57%.

Q: What about the “effect on density of DTMR-labeled RGCs (in words)” value ([1]; retinas with IOP elevation, 5 weeks, quercetin = co-administered with GGA) of the same substance?
A: The value was “higher density; also recorded: partial”.

Q: And the “immunoreactivity of HSP72 in other retinal layers” value (HSP72 [2]; GGA i.p. 7 days)?
A: The value was “No remarkable change”.

Q: And the “immunoreactivity of HSP72 in cells in the RGCL (immunohistochemical staining)” value (HSP72 [2]; GGA i.p. 7 days vs vehicle-treated)?
A: Its value is “Increased immunoreactivity of HSP72”.

Q: And the “levels of HSP72 in RGCs (immunohistochemical staining)” value (HSP72 [2]; oral daily dose of GGA for one week, assayed one week after last oral administration)?
A: The value was “increased levels of HSP72”.

Q: What about the “HSP72 expression (immunoreactive intensity) in the RGCL” value (HSP72 [3]; control (normal IOP) retinas vs vehicle-alone controls) of the same substance?
A: The value was “increased expression of HSP72; also recorded: Increased immunoreactivity of HSP72”.

Q: What about the “HSP72 expression (immunoreactive intensity) in the RGCL” value (HSP72 [3]; retinas with IOP elevation, 1 week) of the same substance?
A: Its value is “apparently further increased”.
